For experiment [1], the target named is T1, AR (cytosol from LnCaP cells) (Homo sapiens, UniProt P10275, T878A).
T1 sequence (P10275 1-920 T878A): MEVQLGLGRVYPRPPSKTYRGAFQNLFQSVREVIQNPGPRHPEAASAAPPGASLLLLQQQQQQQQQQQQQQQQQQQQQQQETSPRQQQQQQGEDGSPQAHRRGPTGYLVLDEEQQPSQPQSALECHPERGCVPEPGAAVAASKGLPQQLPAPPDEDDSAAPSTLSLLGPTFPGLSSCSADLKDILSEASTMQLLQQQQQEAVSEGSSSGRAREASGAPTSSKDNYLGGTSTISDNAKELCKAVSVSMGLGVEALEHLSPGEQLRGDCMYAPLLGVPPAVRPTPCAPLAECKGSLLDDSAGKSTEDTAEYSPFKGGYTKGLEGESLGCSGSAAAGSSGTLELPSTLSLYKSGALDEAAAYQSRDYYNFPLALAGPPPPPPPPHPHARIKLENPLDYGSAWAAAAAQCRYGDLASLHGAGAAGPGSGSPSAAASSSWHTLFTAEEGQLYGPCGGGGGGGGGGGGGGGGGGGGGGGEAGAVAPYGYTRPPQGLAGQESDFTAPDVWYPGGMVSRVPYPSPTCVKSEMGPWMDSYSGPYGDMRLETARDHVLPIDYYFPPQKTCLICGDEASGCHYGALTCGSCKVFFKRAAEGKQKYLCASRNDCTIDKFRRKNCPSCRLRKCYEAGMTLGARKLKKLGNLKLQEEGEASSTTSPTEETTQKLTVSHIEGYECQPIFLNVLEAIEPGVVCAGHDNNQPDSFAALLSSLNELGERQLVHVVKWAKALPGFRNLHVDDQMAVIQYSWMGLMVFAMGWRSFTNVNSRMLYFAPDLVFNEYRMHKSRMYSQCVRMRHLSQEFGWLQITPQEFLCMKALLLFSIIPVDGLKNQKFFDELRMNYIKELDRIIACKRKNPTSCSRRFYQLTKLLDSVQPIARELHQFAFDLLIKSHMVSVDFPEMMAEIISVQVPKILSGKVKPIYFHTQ
The experiment in a line: AR binding assay (3H-R1881 displacement).
Method: The plate was then centrifuged at 3000 rpm for 30 minutes at 4° C.

A further experiment concerns 22Rv1 cells. The experiment in a line: Cell viability assay (CellTiterGlo). The conditions noted are these: Homo sapiens, 22Rv1, 144 h, read-out: 22RV1 (IC50, nM).
A further experiment relates to LNCap cells. The experiment in a line: Cell viability assay (CellTiterGlo). The format is cell-based. The conditions noted are these: Homo sapiens, 144 h.
Experiment [2] has as its target T2, full-length androgen receptor (HEK293 cells stably expressing) (Homo sapiens, UniProt P10275).
T2 sequence (P10275 1-920): T1 sequence (P10275 1-920 T878A) with A878T
The experiment is described as follows: AR antagonism assay (luciferase reporter).

Another experiment concerns IEC6 cells. The experiment in a line: Cell viability assay (CellTiterGlo). The conditions noted are these: Rattus norvegicus, IEC-6, 144 h, read-out: IEC-6 (IC50, nM).
The mark [3] stands for this setting: 6 days incubation, CellTiterGlo, read-out: LNCap (IC50).

Residue numbers refer to the chain shown, from its start. Counter-ions that a name gives are not always drawn. Like-named read-outs stand apart in the source and are kept apart here.

Consider `CC[C@@]1(O)C(=O)OCc2c1cc1n(c2=O)Cc2cc3c(CN(C)C)c(OC(=O)N4C[C@H](C)N(CCCCCCN(C)C5CCN(c6ccc(C(=O)N[C@H]7CC[C@H](Oc8ccc(C#N)c(Cl)c8C)CC7)nn6)CC5)C[C@H]4C)ccc3nc2-1` [Compound 33, (S)-10-((Dimethylamino)methyl)-4-ethyl-4-hydroxy-3,14-dioxo-3,4,12,14-tetrahydro-1H-pyrano[3′,4′:6,7]indolizino[1,2-b]quinolin-9-yl (2R,5S)-4-(6-((1-(6-(((1r,4r)-4-(3-chloro-4-cyano-2-methylphenoxy)cyclohexyl)carbamoyl)pyridazin-3-yl)piperidin-4-yl)(methyl)amino)hexyl)-2,5-dimethylpiperazine-1-carboxylate Formate], for which the half-inhibitory concentration (IC50) in experiment [1] was less than 10 nM; in the experiment with 22Rv1 cells, 101 to 1000 nM; in the experiment on LNCap cells (read-out: LNCap (IC50, nM)) it was 10 to 100 nM; in experiment [2] it was more than 1000 nM; in the experiment with IEC6 cells it was more than 1000 nM.

With `CC[C@@]1(O)C(=O)OCc2c1cc1n(c2=O)Cc2cc3c(CN4CCN(C(=O)CCCCCC5CCN(c6ccc(C(=O)N[C@H]7CC[C@H](N(C)c8ccc(C#N)c(Cl)c8)CC7)nn6)CC5)CC4)cccc3nc2-1` [Compound 43], the IC50 was 10 to 100 nM in experiment [1]; 101 to 1000 nM with 22Rv1 cells; 101 to 1000 nM with LNCap cells (setting [3]); more than 1000 nM in experiment [2]; more than 1000 nM with IEC6 cells.

Take `CC[C@@]1(O)C(=O)OCc2c1cc1n(c2=O)Cc2cc3c(CN4CCN(CCCCCCC5CCN(c6ccc(C(=O)N[C@H]7CC[C@H](Oc8ccc(C#N)c(Cl)c8C)CC7)nn6)CC5)CC4)cccc3nc2-1` [Compound 44, N-((1r,4r)-4-(3-chloro-4-cyano-2-methylphenoxy)cyclohexyl)-6-(4-(6-(4-(((S)-4-ethyl-4-hydroxy-3,14-dioxo-3,4,12,14-tetrahydro-1H-pyrano[3′,4′:6,7]indolizino[1,2-b]quinolin-10-yl)methyl)piperazin-1-yl)hexyl)piperidin-1-yl)pyridazine-3-carboxamide]: the IC50 in experiment [1] is 10 to 100 nM; in the experiment with 22Rv1 cells, 101 to 1000 nM; in the experiment on LNCap cells (setting [3]) it was 101 to 1000 nM; in experiment [2], more than 1000 nM; in the experiment with IEC6 cells, more than 1000 nM.

Consider `CC[C@@]1(O)C(=O)OCc2c1cc1n(c2=O)Cc2cc3c(CN(C)C)c(OC(=O)N4CCN(CCCCCCO[C@H]5CC[C@H]6[C@@H]7CCC8=CC(=O)CCC8=C7CC[C@]56C)CC4)ccc3nc2-1` [Compound 45, (S)-10-((dimethylamino)methyl)-4-ethyl-4-hydroxy-3,14-dioxo-3,4,12,14-tetrahydro-1H-pyrano[3′,4′:6,7]indolizino[1,2-b]quinolin-9-yl 4-(6-(((8S,13S,14S,17S)-13-methyl-3-oxo-2,3,6,7,8,11,12,13,14,15,16,17-dodecahydro-1H-cyclopenta[a]phenanthren-17-yl)oxy)hexyl)piperazine-1-carboxylate], for which the IC50 in experiment [1] was in the range of 10 to 100 nM; in the experiment on 22Rv1 cells it was 10 to 100 nM; in the experiment with LNCap cells (read-out: LNCap (IC50, nM)) it was 10 to 100 nM; in experiment [2], 101 to 1000 nM; in the experiment with IEC6 cells, 101 to 1000 nM.

As to `CC[C@@]1(O)C(=O)OCc2c1cc1n(c2=O)Cc2cc3c(CN(C)C)c(OC(=O)N4C[C@H](C)N(CC5CCN(c6ccc(C(=O)N[C@H]7CC[C@H](N(C)c8ccc(C#N)c(Cl)c8)CC7)nn6)CC5)C[C@H]4C)ccc3nc2-1` [Compound No. 20, (S)-10-((Dimethylamino)methyl)-4-ethyl-4-hydroxy-3,14-dioxo-3,4,12,14-tetrahydro-1H-pyrano[3′,4′:6,7]indolizino[1,2-b]quinolin-9-yl (2R,5S)-4-((1-(6-(((1r,4r)-4-((3-chloro-4-cyanophenyl)-(methyl)amino)cyclohexyl)carbamoyl)pyridazin-3-yl)piperidin-4-yl)methyl)-2,5-dimethylpiperazine-1-carboxylate], the IC50 in experiment [1] is 10 to 100 nM; in the experiment on 22Rv1 cells it was 101 to 1000 nM; with LNCap cells (read-out: LNCap (IC50, nM)), 101 to 1000 nM; in experiment [2] it was more than 1000 nM; with IEC6 cells, more than 1000 nM.

Regarding `CC[C@@]1(O)C(=O)OCc2c1cc1n(c2=O)Cc2c-1nc1cc(F)c(C)c3c1c2[C@@H](NC(=O)CN1CCN(C(=O)CCCCCC2CCN(c4ccc(C(=O)N[C@H]5CC[C@H](N(C)c6ccc(C#N)c(Cl)c6)CC5)nn4)CC2)CC1)CC3` [Compound No. 46], the IC50 was 101 to 1000 nM in experiment [1]; 101 to 1000 nM in the experiment on 22Rv1 cells; 101 to 1000 nM with LNCap cells (setting [3]); more than 1000 nM in experiment [2]; more than 1000 nM in the experiment with IEC6 cells.

Consider `CC[C@@]1(O)C(=O)OCc2c1cc1n(c2=O)Cc2c-1nc1cc(F)c(C)c3c1c2[C@@H](NC(=O)CN1CCN(CCCCCCC2CCN(c4ccc(C(=O)N[C@H]5CC[C@H](Oc6ccc(C#N)c(Cl)c6C)CC5)nn4)CC2)CC1)CC3` [Compound No. 48, N-((1r,4r)-4-(3-chloro-4-cyano-2-methylphenoxy)cyclohexyl)-6-(4-(6-(4-(2-(((1S,9S)-9-ethyl-5-fluoro-9-hydroxy-4-methyl-10,13-dioxo-2,3,9,10,13,15-hexahydro-1H,12H-benzo[de]pyrano[3′,4′:6,7]indolizino[1,2-b]quinolin-1-yl)amino)-2-oxoethyl)piperazin-1-yl)hexyl)piperidin-1-yl)pyridazine-3-carboxamide], for which the half-inhibitory concentration (IC50) is 10 to 100 nM in experiment [1]; 101 to 1000 nM in the experiment on 22Rv1 cells; 101 to 1000 nM in the experiment on LNCap cells (setting [3]); 101 to 1000 nM in experiment [2]; more than 1000 nM in the experiment with IEC6 cells.

`CC[C@@]1(O)C(=O)OCc2c1cc1n(c2=O)Cc2cc3c(CN4CCN(C(=O)CCCCCC5CCN(c6ccc(C(=O)N[C@H]7CC[C@H](N(C)c8ccc(C#N)c(Cl)c8)CC7)nn6)CC5)CC4)c(O)ccc3nc2-1` [Compound No. 49]: the IC50 in experiment [1] was 10 to 100 nM; with 22Rv1 cells it was 10 to 100 nM; in the experiment on LNCap cells (setting [3]), 10 to 100 nM; in experiment [2] it was more than 1000 nM; with IEC6 cells, more than 1000 nM.

On to `CC[C@@]1(O)C(=O)OCc2c1cc1n(c2=O)Cc2cc3c(CN4CCN(C(=O)CCCCCC5CCN(c6ccc(C(=O)N[C@H]7CC[C@H](Oc8ccc(C#N)c(Cl)c8C)CC7)nn6)CC5)CC4)c(O)ccc3nc2-1` [Compound No. 50], for which the IC50 in experiment [1] is 10 to 100 nM; in the experiment on 22Rv1 cells, 10 to 100 nM; in the experiment on LNCap cells (setting [3]), 10 to 100 nM; in experiment [2] it was more than 1000 nM; in the experiment on IEC6 cells, 101 to 1000 nM.

Turning to `CC[C@@]1(O)C(=O)OCc2c1cc1n(c2=O)Cc2cc3c(CN4CCN(CCCCCCC5CCN(c6ccc(C(=O)N[C@H]7CC[C@H](Oc8ccc(C#N)c(Cl)c8C)CC7)nn6)CC5)CC4)c(O)ccc3nc2-1` [Compound No. 52], the IC50 was in the range of 10 to 100 nM in experiment [1]; 10 to 100 nM with 22Rv1 cells; 10 to 100 nM in the experiment with LNCap cells (setting [3]); 10 to 100 nM in experiment [2]; 101 to 1000 nM with IEC6 cells.
